Data published in the NIST ThermoML archive (doi:10.1021/je800110r).
Numbers after ± are expanded uncertainties.

Settings: Liquid, Vibrating tube method

CCCCCCCCCC [decane]
Settings	mass density [kg/m3]
323.15 K, 32682 kPa	732.9 ± 2.1
323.15 K, 32750 kPa	733 ± 2.1
323.15 K, 32786 kPa	733 ± 2.1
323.15 K, 32870 kPa	732.9 ± 2.1
323.15 K, 33409 kPa	733.4 ± 2.1
323.15 K, 33442 kPa	733.3 ± 2.1
323.15 K, 33464 kPa	733.5 ± 2.1
323.15 K, 33482 kPa	733.3 ± 2.1
323.15 K, 33530 kPa	733.5 ± 2.1
323.15 K, 33575 kPa	733.5 ± 2.1
323.15 K, 33593 kPa	733.4 ± 2.1
323.15 K, 34001 kPa	733.8 ± 2.1
323.15 K, 34025 kPa	733.8 ± 2.1
323.15 K, 34059 kPa	733.8 ± 2.1
323.15 K, 34079 kPa	733.8 ± 2.1
323.15 K, 34114 kPa	733.9 ± 2.1
323.15 K, 34138 kPa	733.8 ± 2.1
323.15 K, 34175 kPa	734 ± 2.1
323.15 K, 34199 kPa	733.8 ± 2.1
323.15 K, 34237 kPa	733.8 ± 2.1
323.15 K, 34400 kPa	734 ± 2.1
323.15 K, 34425 kPa	734.1 ± 2.1
323.15 K, 34440 kPa	734 ± 2.1
323.15 K, 34451 kPa	734.1 ± 2.1
323.15 K, 34456 kPa	734 ± 2.1
323.15 K, 34460 kPa	734.2 ± 2.1
323.15 K, 34463 kPa	734.1 ± 2.1
323.15 K, 34464 kPa	734.1 ± 2.1
323.16 K, 356 kPa	707.2 ± 2
323.16 K, 379 kPa	707.1 ± 2
323.16 K, 400 kPa	707.2 ± 2
323.16 K, 417 kPa	707.2 ± 2
323.16 K, 438 kPa	707.2 ± 2
323.16 K, 464 kPa	707.2 ± 2
323.16 K, 488 kPa	707.3 ± 2
323.16 K, 517 kPa	707.3 ± 2
323.16 K, 541 kPa	707.3 ± 2
323.16 K, 575 kPa	707.3 ± 2
323.16 K, 612 kPa	707.4 ± 2
323.16 K, 646 kPa	707.4 ± 2
323.16 K, 728 kPa	707.6 ± 2
323.16 K, 944 kPa	707.8 ± 2
323.16 K, 1001 kPa	707.8 ± 2
323.16 K, 1024 kPa	707.7 ± 2
323.16 K, 1047 kPa	707.8 ± 2
323.16 K, 1070 kPa	707.8 ± 2
323.16 K, 1102 kPa	707.8 ± 2
323.16 K, 1211 kPa	708 ± 2
323.16 K, 1244 kPa	708 ± 2
323.16 K, 1280 kPa	708.1 ± 2
323.16 K, 1314 kPa	708 ± 2
323.16 K, 1337 kPa	708.2 ± 2
323.16 K, 1362 kPa	708.2 ± 2
323.16 K, 1381 kPa	708.2 ± 2
323.16 K, 1405 kPa	708.1 ± 2
323.16 K, 1427 kPa	708.2 ± 2
323.16 K, 1453 kPa	708.3 ± 2
323.16 K, 1479 kPa	708.2 ± 2
323.16 K, 1503 kPa	708.2 ± 2
323.16 K, 1524 kPa	708.3 ± 2
323.16 K, 1553 kPa	708.2 ± 2
323.16 K, 1582 kPa	708.2 ± 2
323.16 K, 1608 kPa	708.4 ± 2
323.16 K, 1630 kPa	708.4 ± 2
323.16 K, 1671 kPa	708.3 ± 2
323.16 K, 1694 kPa	708.4 ± 2
323.16 K, 1723 kPa	708.5 ± 2
323.16 K, 1748 kPa	708.5 ± 2
323.16 K, 1778 kPa	708.5 ± 2
323.16 K, 1812 kPa	708.4 ± 2
323.16 K, 1848 kPa	708.5 ± 2
323.16 K, 1871 kPa	708.5 ± 2
323.16 K, 1898 kPa	708.7 ± 2
323.16 K, 1945 kPa	708.7 ± 2
323.16 K, 1973 kPa	708.7 ± 2
323.16 K, 2008 kPa	708.6 ± 2
323.16 K, 2050 kPa	708.7 ± 2
323.16 K, 2081 kPa	708.7 ± 2
323.16 K, 2113 kPa	708.8 ± 2
323.16 K, 2151 kPa	708.7 ± 2
323.16 K, 2201 kPa	708.9 ± 2
323.16 K, 2247 kPa	708.9 ± 2
323.16 K, 2281 kPa	708.8 ± 2
323.16 K, 2332 kPa	708.9 ± 2
323.16 K, 2405 kPa	709.1 ± 2
323.16 K, 2718 kPa	709.4 ± 2
323.16 K, 2738 kPa	709.3 ± 2
323.16 K, 2755 kPa	709.4 ± 2
323.16 K, 2772 kPa	709.4 ± 2
323.16 K, 2789 kPa	709.5 ± 2
323.16 K, 2809 kPa	709.5 ± 2
323.16 K, 2845 kPa	709.6 ± 2
333.14 K, 21082 kPa	717.8 ± 2
333.14 K, 21129 kPa	717.8 ± 2
333.14 K, 26540 kPa	722.1 ± 2.1
333.14 K, 26569 kPa	722.1 ± 2.1
333.14 K, 26609 kPa	722 ± 2.1
333.14 K, 26648 kPa	722.2 ± 2.1
333.14 K, 26696 kPa	722.2 ± 2.1
333.14 K, 26733 kPa	722.2 ± 2.1
333.14 K, 26773 kPa	722.3 ± 2.1
333.14 K, 26813 kPa	722.3 ± 2.1
333.14 K, 26859 kPa	722.4 ± 2.1
333.14 K, 26912 kPa	722.4 ± 2.1
333.14 K, 26958 kPa	722.4 ± 2.1
333.14 K, 26993 kPa	722.4 ± 2.1
333.14 K, 27039 kPa	722.4 ± 2.1
333.14 K, 27087 kPa	722.4 ± 2.1
333.14 K, 27129 kPa	722.6 ± 2.1
333.14 K, 27171 kPa	722.5 ± 2.1
333.14 K, 27219 kPa	722.5 ± 2.1
333.14 K, 30020 kPa	724.6 ± 2.1
333.14 K, 30058 kPa	724.6 ± 2.1
333.14 K, 30100 kPa	724.7 ± 2.1
333.14 K, 30134 kPa	724.7 ± 2.1
333.14 K, 30168 kPa	724.7 ± 2.1
333.14 K, 30197 kPa	724.7 ± 2.1
333.14 K, 30227 kPa	724.8 ± 2.1
333.14 K, 30265 kPa	724.9 ± 2.1
333.14 K, 30291 kPa	724.8 ± 2.1
333.14 K, 30312 kPa	724.8 ± 2.1
333.14 K, 30350 kPa	724.9 ± 2.1
333.14 K, 30376 kPa	724.8 ± 2.1
333.14 K, 30402 kPa	724.9 ± 2.1
333.14 K, 30432 kPa	724.9 ± 2.1
333.14 K, 30458 kPa	724.9 ± 2.1
333.14 K, 30480 kPa	725 ± 2.1
333.14 K, 30502 kPa	725 ± 2.1
333.14 K, 30528 kPa	725 ± 2.1
333.14 K, 30566 kPa	725 ± 2.1
333.14 K, 30592 kPa	724.9 ± 2.1
333.14 K, 30623 kPa	725 ± 2.1
333.14 K, 30654 kPa	725.2 ± 2.1
333.14 K, 30689 kPa	725.2 ± 2.1
333.14 K, 31374 kPa	725.5 ± 2.1
333.14 K, 31402 kPa	725.6 ± 2.1
333.14 K, 31439 kPa	725.6 ± 2.1
